Assay results published in patent US8680290B2, “Isoxazoline derivatives and their use as herbicides” (Syngenta Limited, priority 2004, dated 2014).

Experiments:
[1] = test system: Monocotyledonous and dicotyledonous test plants; assay: Example B1 herbicidal action, application pre-emergence (Table B1b); assay type: in vivo; details: 250 g/ha, evaluated after 4 weeks
Method in brief: (§1)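 Compounds sprayed as aqueous solution from acetone/Emulsogen EL/NMP/dipropylene glycol monomethyl ether/X-77 formulation onto soil right after sowing (pre-emergence) or onto 8–9-day plants (post-emergence); greenhouse-grown. Damage scored 0 (none) to 10 (total) after 4 weeks pre- or 3 weeks post-emergence.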

[2] = test system: Monocotyledonous and dicotyledonous test plants; assay: Example B1 herbicidal action, application post-emergence (Table B1a); assay type: in vivo; details: 250 g/ha, evaluated after 3 weeks, scale 0-10
Method in brief: as §1

[3] = test system: Monocotyledonous and dicotyledonous test plants; assay: Example B2 herbicidal action, application pre-emergence, 96-cell seed trays (Table B2b); assay type: in vivo; details: 1000 g/ha
Description: Monocotyledonous and dicotyledonous test plants were sown in sterilised standard soil in seed trays each having 96 cells. After one day (pre-emergence) or after 8 to 9 days cultivation (post-emergence) under controlled conditions in a climatic chamber (cultivation at 17/23° C.; 13 hours light; 50-60% humidity; after application at 19/24° C.), the plants were treated with an aqueous spray solution of 1000 mg/l of the active ingredient used (rate of application: […]; incl. 10% DMSO as solvent). The plants were grown on in the climatic chamber until the test was evaluated (10 total damage to plant, 0=no damage to plant) after 9 or 13 days.

Row | melting point [°C] | SMILES | herbicidal action (damage rating 0-10), Amaranthus [1] | herbicidal action (damage rating 0-10), Digitaria [1] | herbicidal action (damage rating 0-10), Panicum [1] | herbicidal action (damage rating 0-10), Setaria [1] | herbicidal action (damage rating 0-10), Sida [1] | herbicidal damage rating, Abutilon [2] | herbicidal damage rating, Amaranthus [2] | herbicidal damage rating, Digitaria [2] | herbicidal damage rating, Panicum [2] | herbicidal damage rating, Setaria [2] | herbicidal damage rating, Sida [2] | herbicidal action (damage rating 0-10), Agrostis [3] | herbicidal action (damage rating 0-10), Digitaria [3] | herbicidal action (damage rating 0-10), Poa [3] | herbicidal action (damage rating 0-10), Setaria [3]
1 | – | CC1(C)CC(S(=O)(=O)C(F)(F)c2c(F)cccc2F)=NO1 [1.20] | 10 | 10 | 10 | 10 | 9 | 7 | 3 | 6 | 0 | 6 | 5 | 10 | 10 | 10 | 10
2 | 118 | COc1cc(C(Cl)(Cl)S(=O)(=O)C2=NOC(C)(C)C2)on1 [Compound No. 5.02, 5-[dichloro-(5,5-dimethyl-4,5-dihydroisoxazole-3-sulfonyl)-methyl]-3-methoxy-isoxazole] | – | – | – | – | – | – | – | – | – | – | – | – | – | – | –
3 | 105 to 107 | Cn1nc(C(F)(F)F)c(C(F)S(=O)(=O)C2=NOC(C)(C)C2)c1OC1COC1 (stereo not shown) [Compound No. 2.27, 3-{fluoro-[1-methyl-5-(oxetan-3-yloxy)-3-trifluoromethyl-1H-pyrazol-4-yl]-methanesulfonyl}-5,5-dimethyl-4,5-dihydroisoxazole] | – | – | – | – | – | – | – | – | – | – | – | – | – | – | –
4 | – | CC1(C)CC(S(=O)(=O)C(c2c(F)cccc2F)S(=O)(=O)Cc2ccccc2)=NO1 (stereo not shown) [1.39] | 3 | 7 | 7 | 3 | 0 | – | – | – | – | – | – | 10 | 5 | 10 | 3
5 | 101 to 103 | Cn1cc(C(F)(F)F)c(C(F)(F)S(=O)(=O)C2=NOC(C)(C)C2)n1 [Compound No. 4.05, 3-[difluoro-(1-methyl-4-trifluoromethyl-1H-pyrazol-3-yl)-methanesulfonyl]-5,5-dimethyl-4,5-dihydro-isoxazole] | – | – | – | – | – | – | – | – | – | – | – | – | – | – | –
6 | – | CC1(C)CC(S(=O)(=O)C(C)(Br)c2c(F)cccc2F)=NO1 (stereo not shown) [1.37] | 0 | 9 | 9 | 9 | 5 | – | – | – | – | – | – | 10 | 9 | 10 | 9
7 | – | CC1(C)CC(S(=O)(=O)C(C)(Cl)c2c(F)cccc2F)=NO1 (stereo not shown) [1.15] | 10 | 9 | 10 | 8 | 0 | – | – | – | – | – | – | 2 | 9 | 10 | 9
8 | 150 | CC1(C)CC(S(=O)(=O)C(C(=O)NC2CC2)c2c(F)cccc2F)=NO1 (stereo not shown) [Compound No. 1.35, N-cyclopropyl-2-(2,6-difluoro-phenyl)-2-(5,5-dimethyl-4,5-dihydroisoxazole-3-sulfonyl)-acetamide] | – | – | – | – | – | – | – | – | – | – | – | – | – | – | –
9 | – | CC1(C)CC(S(=O)(=O)C2(c3c(F)cccc3F)CC2)=NO1 [Compound No. 1.01, 3-[1-(2,6-difluoro-phenyl)-cyclopropanesulfonyl]-5,5-dimethyl-4,5-dihydroisoxazole] | 2 | 7 | 8 | 8 | 0 | – | – | – | – | – | – | 10 | 9 | 10 | 9
10 | – | Cc1cccc(C(CC=C(F)F)S(=O)(=O)C2=NOC(C)(C)C2)c1 (stereo not shown) [1.29] | 2 | 3 | 7 | 7 | 0 | – | – | – | – | – | – | 10 | 9 | 8 | 4
11 | 91 to 93 | CC1(C)CC(S(=O)(=O)C(C)(F)c2ccccc2)=NO1 (stereo not shown) [Compound No. 1.138, 3-(1-fluoro-1-phenyl-ethanesulfonyl)-5,5-dimethyl-4,5-dihydroisoxazole] | – | – | – | – | – | – | – | – | – | – | – | – | – | – | –
12 | – | COC(=O)C(Cl)(c1c(F)cccc1F)S(=O)(=O)C1=NOC(C)(C)C1 (stereo not shown) [Compound No. 1.14, chloro-(2,6-difluorophenyl)-(5,5-dimethyl-4,5-dihydroisoxazole-3-sulfonyl)-acetic acid methyl ester] | 8 | 9 | 9 | 9 | 6 | 4 | – | 3 | 0 | 3 | 3 | 10 | 9 | 10 | 10
13 | 117 to 118 | Cn1cc(C(F)(F)F)c(C(F)S(=O)(=O)C2=NOC(C)(C)C2)n1 (stereo not shown) [Compound No. 4.04, 3-[fluoro-(1-methyl-4-trifluoromethyl-1H-pyrazol-3-yl)-methanesulfonyl]-5,5-dimethyl-4,5-dihydroisoxazole] | – | – | – | – | – | – | – | – | – | – | – | – | – | – | –
14 | 72 | Cc1noc(C2CC2)c1C(Cl)(Cl)S(=O)(=O)C1=NOC(C)(C)C1 [Compound No. 3.06, 5-cyclopropyl-4-[dichloro-(5,5-dimethyl-4,5-dihydroisoxazole-3-sulfonyl)methyl]-3-methyl-isoxazole] | – | – | – | – | – | – | – | – | – | – | – | – | – | – | –
15 | – | CC1(C)CC([S+]([O-])C(Cl)c2c(F)cccc2F)=NO1 (mixture of isomers) [1.24] | 8 | 8 | 10 | 7 | 4 | – | – | 6 | 6 | 6 | – | 10 | 10 | 10 | 9
16 | – | C#CCC(c1c(F)cccc1F)S(=O)(=O)C1=NOC(C)(C)C1 (stereo not shown) [Compound No. 1.02] | – | – | 6 | 3 | 0 | 0 | 9 | 6 | 10 | 7 | 5 | 8 | 9 | 5 | 9
